{"source": "patent US10188727B2", "about": "“Bifunctional molecules with antibody-recruiting and entry inhibitory activity against the human immunodeficiency virus” (YALE UNIVERSITY, priority 2009, dated 2019)", "key": {"CHO-gp120 cells [1]": {"test_system": "CHO-gp120 cells", "assay": "CDC assay (complement-dependent cytotoxicity) on Env-expressing cells", "assay_type": "cell-based, Chinese hamster", "procedure": "CDC Assay (FIG. 4 and FIG. 8)\nCHO-WT or CHO-K1 cells taken from a T-75 flask (˜80% confluent), were washed once with DPBS (Gibco, 5 mL), and cells were then detached with 2.5 mM EDTA/0.5 mM EGTA in DPBS. Resulting cell suspension was centrifuged at 900 rpm for five minutes, then pellet was aspirated and re-suspended at a density of 9.00×10^5 cells/mL in Buffer E. Subsequently, cell suspension was added to prepared dilutions of ARM-H (4) (or control molecule) in Buffer E. Resulting cell mixtures were plated in triplicate (50 μL, 22,500 cells/well)□ onto 96 well plates (CoStar, black sides/clear bottom), covered with tin foil and incubated at 4° C. for 1.5 hours. To each well, 50 μL of 20% rabbit complement serum (v/v, Aldrich) and 100 μg/mL rat anti-DNP IgG (Zymed; Carlsbad, Calif.) in Buffer E was added, resulting in a 10% (v/v) complement and 50 μg/mL antibody concentration per well. Negative control wells containing only ARM-H dilutions were prepared in addition to maximum cell death controls (0.15% H2O2). Covered plate was incubated for an additional hour at 4° C. and then for 4 hours at room temperature. All control experiments were conducted following the same protocol. Cell viability was determined using the luciferase-based CellTiter-Glo Luminescent Cell Viability Assay (Promega). Complement mediated cell death and cytotoxicity was calculated as: [1−((sample-max killing)/(untreated-max killing))]×100 and plotted using GraphPad Prism. Raw data was subjected to Dixon Q-test analysis at the 90% confidence interval and statistical outliers removed accordingly^16,17. ^16. Dean, R. B.; Dixon, W. J. Anal. Chem. 1951, 23, 636-638.^17. Efstathiou, C. E. Talanta 2006, 69, 1068-1071."}, "CD4-gp120 interaction": {"biological_target": "CD4-gp120 interaction (Human immunodeficiency virus type 1, UniProt Q75760)", "assay": "CD4 inhibition ELISA (competition ELISA, sCD4 binding to immobilized gp120)", "set-up": "species or system HIV-1", "procedure": "CD4 Inhibition ELISA (FIG. 2A)\nThis procedure was adapted from the protocol reported by Lin, et al.^14. 96 well plates (Nunc; Immuno) were coated overnight at 4° C. with soluble recombinant HIV-1 gp120JRFL (Immune Technology; Yonkers, N.Y.) at 1 μg/ml in 0.05M Buffer A (carbonate/bicarbonate, pH=9.6, Aldrich). Plates were washed with PBS (Aldrich, 1×100 μL) and then blocked with 3% nonfat milk in phosphate buffered saline solution (PBS, Aldrich) for 1 hr at room temperature. After washing with Buffer B (50 mM Tris HCl, 100 mM NaCl, 0.05% Tween-20, pH 7.4), varying concentrations of the inhibitor were added simultaneously with recombinant human T-cell CD4 (ImmunoDiagnostics, Inc; Woburn, Mass.) in Buffer C (50 mM Tris HCl, 100 mM NaCl, 1% BSA, pH 7.4) so that the final concentration/well of CD4 is 0.1 μg/mL and plates were incubated for 1 hr at room temperature. Plates were washed with Buffer B (3×100 μL) and then incubated with mouse OKT4 anti-CD4 IgG antibody (Biolegend; San Diego, Calif.) at 0.36 μg/ml in Buffer C at RT for 1 hr. Following washes with Buffer B, plates were incubated with horse radish peroxidase (HRP)-conjugated goat anti-mouse antibody (1:2500; Biolegend; San Diego, Calif.). Bound antibody was detected with 3,3,5,5-tetramethylbenzidine (TMB, Pierce Protein Research Products), the chromogenic substrate for HPR, and absorbance was read at 450 nm. […]"}, "wild-type HIV IIIB": {"test_system": "wild-type HIV IIIB", "assay": "MT-2 cell assay, antiviral activity (MTT)", "assay_type": "cell-based, HIV-1", "procedure": "(§1) Antiviral activity and cellular toxicity were determined using the MTT colorimetric method^7,8. MT-2 cell^9,10 at a concentration of 1×10^5 cells per milliliter were infected with wild-type HIV IIIB^11,12,13 at a multiplicity of infection (MOI) of 0.1. Infected and mock-infected cells were incubated in growth medium (RPMI 1640, 10% δFBS, kanamycin) for 5 days with varying concentrations of each compound being tested in triplicate in a 96-well plate. MIT (thiazolyl blue tetrazolium bromide), a cell-permeable tetrazolium dye was then added to each well. Active mitochondria reduce the yellow tetrazolium salt to a blue formazan precipitate. After 5 h, stop solution (86% isopropanol, 4% NP-40, 10% H2O, and 0.3% concentrated HCl) was added to lyse the cells and stop the reaction. The plates were gently shaken gently overnight on a horizontal rotator, and quantitated the following morning. Cell viability was measured spectrophotometrically by quantifying the amount of purple precipitate via determining the absorbance at 595 nm using a Multiskan Plus from Labsystems (Helsinki, Finland) microplate reader. The average of these triplicate samples was then plotted versus inhibitor concentration to generate dose-response curves. The 50% effective concentration (EC50) and 50% cytotoxic concentration (CC50) of the compounds were defined as the concentrations required to inhibit viral replication and to reduce the number of viable cells by 50%, respectively. Positive controls were done during each set of experiments using d4T and the appropriate parent NNRTI (HI-236 or TMC-derivative). Data were quantitated using KaleidaGraph (Synergy Software). ^7. Mosmann, T. J. Immunol Methods 1983, 65, 55-63.^8. Pannecouque, C.; Daelemans, D.; Clercq, E. D. Nat Protoc. 2008, 3, 427-434.^9. Haertle, T.; Carrera, C. J.; Wasson, D. B.; Sowers, L. C.; Richman, D. D.; Carson, D. A. J. Biol Chem. 1988, 263, 5870-5875.^10. Harada, S.; Koyanagi, Y.; Yamamoto, N. Science 1985, 229, 563-566.^11. Popovic, M.; Read-Connole, E.; Gallo, R. C. […] Popovic, M.; Samgadharan, M. G.; Read, E.; Gallo, R. C. […]"}, "MT-2 cells": {"test_system": "MT-2 cells", "assay": "MT-2 cell assay, cellular toxicity in mock-infected cells (MTT)", "assay_type": "cell-based, human", "conditions": "control MT-2 cultures lacking HIV virus", "procedure": "as §1, with “The 50% effective concentration (EC50) and 50% cytotoxic concentration (CC50) of the compounds were defined as the concentrations required to inhibit viral replication and to reduce the number of viable cells by 50%, respectively. Positive controls were done during each set of experiments using d4T and the appropriate parent NNRTI (HI-236 or TMC-derivative).” left out, “Mosmann, T. J. Immunol Methods 1983, 65, 55-63.^8. Pannecouque, C.; Daelemans, D.; Clercq, E. D. Nat Protoc. 2008, 3, 427-434.^9. Haertle, T.; Carrera, C. J.; Wasson, D. B.; Sowers, L. C.; Richman, D. D.; Carson, D. A. J. Biol Chem. 1988, 263, 5870-5875.^10. Harada, S.; Koyanagi, Y.; Yamamoto, N. Science 1985, 229, 563-566.^11.” left out"}, "CHO-gp120 cells [2]": {"test_system": "CHO-gp120 cells", "assay": "Immunofluorescence microscopy, recruitment of labeled anti-DNP antibodies", "assay_type": "cell-based, Chinese hamster", "conditions": "ARM-H plus competing ligand", "procedure": "Immunofluorescence (FIG. 3)\nConfluent CHO-WT (env expressing) or CHO-K1 (non-env expressing) cells were incubated on cover slips (15CIR-1D, Fisher) over 2 nights at 37° C. in 5% CO2. Cover slips were washed with DPBS (1 mL, Gibco) and then cells fixed with 4% parafomaldehyde in DPBS at 4° C. for 10 minutes. […] Cover slips then washed with Buffer E (2×70 μl) and incubated with AlexaFluor488 rabbit anti-DNP IgG antibodies (Invitrogen) at 15 μg/ml in Buffer E (70 μl) for 1 hr at 4° C. All cover slips were washed prior to mounting onto slides using Gel Mount mounting medium (Biomeda Corp.) with Buffer E and water. Corresponding competition experiments were performed in the presence of recombinant human T-cell CD4 (ImmunoDiagnostics, Inc; Woburn, Mass.), BMS-378806 (1) and DNP-PEG-alkyne (2). Cells were checked using a Zeiss Axiovert 200M fluorescence microscope equipped with a GFP filter."}, "CHO-K1 cells": {"test_system": "CHO-K1 cells", "assay": "Flow cytometry detection of DNP labeling", "assay_type": "cell-based, Chinese hamster", "conditions": "higher concentrations of labeling reagent, data not shown", "procedure": "Flow Cytometry Detection of DNP Labeling (FIG. 9)\nCHO-K1 cells taken from a T-75 flask (˜80% confluent), were washed once with DPBS (Gibco, 5 mL), and cells were then detached with 2.5 mM EDTA/0.5 mM EGTA in DPBS. Resulting cell suspension was centrifuged at 900 rpm for five minutes, then pellet was aspirated and re-suspended at a density of 1.40×10^6 cells/mL in F12-K growth medium. Cells were incubated with 2,4-dinitrobenzenesulfonic acid (TCI, 50 mg/mL solution in MeOH) at varying concentrations for 30 min. at room temperature. Cells centrifuged and washed with growth medium (×3) and then aliquoted (0.5 ml) into Eppendorf tubes at a cell density of 1.40×10^6 cells/mL. Cells incubated with AlexaFluor 488 conjugated rabbit anti-DNP IgG (Invitrogen) antibodies (20 μg/mL) for 1 hr at 4° C. Cells were subsequently centrifuged, washed with DPBS (3×0.5 mL), resuspended in 0.5 mL DPBS containing 150 μg of propidium iodide (to monitor cell death) and immediately analyzed for fluorescence using a FACSCalibur flow cytometer (Becton Dickinson) monitoring at least 10,000 events/measurement. Data were analyzed using FlowJo Analysis Software (Tree Star)."}}, "note": "Entries after “also recorded” stand apart in the source; their conditions may differ. Where two headings read alike, the source gives them in different places."}
{"smiles": "C[C@@H]1CN(C(=O)c2ccccc2)CCN1C(=O)C(=O)c1c[nH]c2nccc(OCCOCCOCCOCCOCCOCCn3cc(COCCOCCOCCOCCNc4ccc([N+](=O)[O-])cc4[N+](=O)[O-])nn3)c12", "note": "[ARM-H]", "values": [{"measurement": "non specific cytotoxicity in CHO cell lines", "setting": "CHO-gp120 cells [1]; CHO cell lines", "value": "no non specific cytotoxicity"}, {"measurement": "cell death without antibody and complement", "setting": "CHO-gp120 cells [1]; CHO-gp120 cells, absence of anti-DNP antibody and complement-preserved serum", "value": "no cell death was observed"}, {"measurement": "concentrations at which inhibition of HIV entry and CDC activity were both operative", "setting": "CHO-gp120 cells [1]; MT-2 entry inhibition and CDC together", "value": "6 to 30", "unit": "µM"}, {"measurement": "IC50", "setting": "CD4-gp120 interaction", "value": "~8.7", "unit": "µM"}, {"measurement": "IC50", "setting": "wild-type HIV IIIB; Human immunodeficiency virus 1, IIIB, MT2, live HIV-1, human MT-2 T-cell line, read-out: IC50, HIV-1 inhibition in MT-2 cell assay", "value": 6.4, "unit": "µM"}, {"measurement": "cytotoxicity in MT-2 cells", "setting": "MT-2 cells", "value": "no observable cytotoxicity; also recorded: no non specific cytotoxicity"}]}
{"smiles": "COc1ccnc2[nH]cc(C(=O)C(=O)N3CCN(C(=O)c4ccccc4)C[C@H]3C)c12", "note": "[Formula 1, 4-benzoyl-1-(2-(4-methoxy-1H-pyrrolo(2,3-b)pyridin-3-yl)-1,2-dioxoethyl)-2-methyl-, (2R)-Piperazine, reference compound]", "values": [{"measurement": "fluorescence of ARM-H-recruited anti-DNP antibodies in the presence of competing ligand", "setting": "CHO-gp120 cells [2]", "value": "considerably diminished"}, {"measurement": "IC50", "setting": "CD4-gp120 interaction", "value": 1.3, "unit": "µM"}, {"measurement": "IC50", "setting": "wild-type HIV IIIB; Human immunodeficiency virus 1, IIIB, MT2, read-out: IC50, HIV-1 inhibition in MT-2 cell assay", "value": 0.32, "unit": "µM"}]}
{"smiles": "C#CCOCCOCCOCCOCCNc1ccc([N+](=O)[O-])cc1[N+](=O)[O-]", "note": "[Formula 2, N-(2,4-dinitrophenyl)-3,6,9,12-tetraoxapentadec-14-yn-1-amine]", "values": [{"measurement": "fluorescence of ARM-H-recruited anti-DNP antibodies in the presence of competing ligand", "setting": "CHO-gp120 cells [2]", "value": "considerably diminished"}]}
{"smiles": "Cc1cn([C@H]2C=C[C@@H](CO)O2)c(=O)[nH]c1=O", "note": "[d4T]", "values": [{"measurement": "IC50", "setting": "wild-type HIV IIIB; live HIV-1, human MT-2 T-cell line, read-out: IC50, HIV-1 inhibition in MT-2 cell assay", "value": 4.2, "unit": "µM"}]}
{"smiles": "O=[N+]([O-])c1ccc(S(=O)(=O)O)c([N+](=O)[O-])c1", "note": "[dinitrobenzenesulfonic acid, 2,4-dinitrobenzenesulfonic acid]", "values": [{"measurement": "cell death on labeling of CHO-K1 cells", "setting": "CHO-K1 cells", "value": "Significant cell death"}]}
